Laboratory results reported in the supplement of paper PMC11061612.

Experiments:
[1] = compound: O=c1[nH]cc(F)c(=O)[nH]1 [5-Fluorouracil]; details: max 20 µM
How it was run: (§1)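 Cancer cell lines in 1536-well plates (7.5 μl DMEM/F12 or RPMI, 10% FBS) were held 24 hours at 37°C and 5% CO2 and then dosed for 72 hours at a final DMSO of typically 0.2%. Viability was taken from CellTiter-Glo 2.0 luminescence, scaled between blank-well and DMSO-well means. Curves were fitted as two-parameter logistic models with a non-linear mixed effects model, from which the single-agent IC50 was taken.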

[2] = compound: C=CCn1c(=O)c2cnc(Nc3ccc(N4CCN(C)CC4)cc3)nc2n1-c1cccc(C(C)(C)O)n1 [AZD1775]; details: max 3 µM
How it was run: as §1

[3] = compound: COc1cc2ncnc(Nc3ccc(F)c(Cl)c3)c2cc1OCCCN1CCOCC1 [Gefitinib]; details: max 10 µM
How it was run: as §1

[4] = compound: COc1cc([C@@H]2c3cc4c(cc3[C@@H](O[C@@H]3O[C@@H]5CO[C@@H](C)O[C@H]5[C@H](O)[C@H]3O)[C@H]3COC(=O)[C@H]23)OCO4)cc(OC)c1O [Etoposide]; details: max 10 µM
How it was run: as §1

[5] = compound: N#Cc1cnc(Nc2cc(NC[C@H]3CNCCO3)c(C(F)(F)F)cn2)cn1 [SRA737]; details: max 10 µM
How it was run: as §1

[6] = compound: CCc1c2c(nc3ccc(O)cc13)-c1cc3c(c(=O)n1C2)COC(=O)[C@]3(O)CC [SN-38]; details: max 0.3 µM
How it was run: as §1

[7] = compound: C1CN(CCC1(C(=O)N[C@@H](CCO)C2=CC=C(C=C2)Cl)N)C3=NC=NC4=C3C=CN4 [AZD5363]; details: max 10 µM
How it was run: as §1

[8] = compound: CC(=O)Nc1cccc(-n2c(=O)n(C3CC3)c(=O)c3c(Nc4ccc(I)cc4F)n(C)c(=O)c(C)c32)c1 [Trametinib]; details: max 1 µM
How it was run: as §1

[9] = compound: COc1nnc2ccc(N3CCC(c4ccc(OCCN5CCN(C)C(=O)[C@H]5C)cc4)CC3)nn12 [AZD5153]; details: max 1 µM
How it was run: as §1

[10] = compound: COc1cccc2c1C(=O)c1c(O)c3c(c(O)c1C2=O)C[C@@](O)(C(=O)CO)C[C@@H]3O[C@H]1C[C@H](N)[C@H](O)[C@H](C)O1 [Doxorubicin]; details: max 1 µM
How it was run: as §1

[11] = compound: CN(C)CCCOc1ccc(-c2ccc3ncc4c(c3c2)n(C2CCOCC2)c(=O)n4C)cn1 [AZD0156]; details: max 3 µM
How it was run: as §1

[12] = compound: O=C(Nc1ccc2[nH]nc(-c3ccncc3)c2c1)[C@@H]1CCN(CC(=O)N2CCN(c3ccc(-c4ncccn4)cc3)CC2)C1; details: max 5 µM
How it was run: as §1

[13] = compound: CC1=C(C(=CC=C1)Cl)NC(=O)C2=CN=C(S2)NC3=CC(=NC(=N3)C)N4CCN(CC4)CCO [Dasatinib]; details: max 2 µM
How it was run: as §1

[14] = compound: Cc1cc2ncnn2cc1Nc1ncc2c(n1)n(C1CCOCC1)c(=O)n2C [AZD7648]; details: max 10 µM
How it was run: as §1

[15] = compound: Cn1cnc2c(F)c(Nc3ccc(Br)cc3Cl)c(C(=O)NOCCO)cc21 [Selumetinib]; details: max 10 µM
How it was run: as §1

[16] = compound: CN(CC[C@H](CSC1=CC=CC=C1)NC2=C(C=C(C=C2)S(=O)(=O)NC(=O)C3=CC=C(C=C3)N4CCC(CC4)[C@H](C5=CC=CC=C5C6=CC=C(C=C6)Cl)O)S(=O)(=O)C(F)(F)F)CCO [AZD4320]; details: max 1 µM
How it was run: as §1

[17] = compound: CC1(C)CCC(CN2CCN(c3ccc(C(=O)NS(=O)(=O)c4ccc(NCC5CCOCC5)c([N+](=O)[O-])c4)c(Oc4cnc5[nH]ccc5c4)c3)CC2)=C(c2ccc(Cl)cc2)C1 [Venetoclax]; details: max 1 µM
How it was run: as §1

[18] = compound: CC(=O)O[C@H]1C(=O)[C@@]2(C)[C@H]([C@H](OC(=O)c3ccccc3)[C@]3(O)C[C@H](OC(=O)[C@H](O)[C@@H](NC(=O)c4ccccc4)c4ccccc4)C(C)=C1C3(C)C)[C@]1(OC(C)=O)CO[C@@H]1C[C@@H]2O [Paclitaxel]; details: max 3 µM
How it was run: as §1

[19] = compound: C[C@@H](Nc1cc(F)cc(F)c1)c1cc(C(=O)N(C)C)cc2c(=O)cc(N3CCOCC3)oc12 [AZD8186]; details: max 10 µM
How it was run: as §1

[20] = compound: COc1cccc(OCCCN)c1-c1cc(Nc2cnc(C#N)cn2)n[nH]1 [Prexasertib]; details: max 1 µM
How it was run: as §1

[21] = compound: CS(=O)(=O)CCNCc1ccc(-c2ccc3ncnc(Nc4ccc(OCc5cccc(F)c5)c(Cl)c4)c3c2)o1 [Lapatinib]; details: max 10 µM
How it was run: as §1

[22] = compound: Nc1ccn([C@@H]2O[C@H](CO)[C@@H](O)C2(F)F)c(=O)n1 [Gemcitabine]; details: max 0.3 µM
How it was run: as §1

[23] = compound: CC(C)n1c(=O)n(C)c2cnc3cc(F)c(-c4ccc(OCCCN5CCCCC5)nc4)cc3c21 [AZD1390]; details: max 0.3 µM
How it was run: as §1

[24] = compound: Cc1c2c(nn1C)CSCc1cc(n(C)n1)CSc1cc(c3ccccc3c1)OCCCc1c(C(=O)O)n(C)c3c-2c(Cl)ccc13 [AZD5991]; details: max 1 µM
How it was run: as §1

[25] = compound: COc1cc(Nc2ncc3c(n2)-c2ccc(Cl)cc2C(c2c(F)cccc2OC)=NC3)ccc1C(=O)O [Alisertib]; details: max 10 µM
How it was run: as §1

[26] = compound: NC1(c2ccc(-c3nc4ccn5c(=O)[nH]nc5c4cc3-c3ccccc3)cc2)CCC1 [MK-2206]; details: max 10 µM
How it was run: as §1

[27] = compound: CCN(CCO)CCCOc1ccc2c(Nc3cc(CC(=O)Nc4cccc(F)c4)[nH]n3)ncnc2c1 [AZD2811]; details: max 1 µM
How it was run: as §1

[28] = compound: CC(=O)c1c(C)c2cnc(Nc3ccc(N4CCNCC4)cn3)nc2n(C2CCCC2)c1=O [Palbociclib]; details: max 10 µM
How it was run: as §1

[29] = compound: CC1=CN2[C@@H](C1)C=NC3=CC(=C(C=C3C2=O)OC)OCCCCCOC4=C(C=C5C(=C4)N=C[C@@H]6CC(=CN6C5=O)C)OC [SG3199]; details: max 0.001 µM
How it was run: as §1

[30] = compound: Cc1nc(-c2cn3c(n2)-c2ccc(-c4cnn(C(C)(C)C(N)=O)c4)cc2OCC3)n(C(C)C)n1 [Taselisib]; details: max 10 µM
How it was run: as §1

[31] = compound: C1CC(C1)(C(=O)[O-])C(=O)[O-].N.N.[Pt+2] [Carboplatin]; details: max 10 µM
How it was run: as §1

[32] = compound: O=C(c1cc(Cc2n[nH]c(=O)c3ccccc23)ccc1F)N1CCN(C(=O)C2CC2)CC1 [Olaparib]; details: max 10 µM
How it was run: as §1

[33] = compound: C[C@@H](Oc1cc(-c2cnn(C3CCNCC3)c2)cnc1N)c1c(Cl)ccc(F)c1Cl [Crizotinib]; details: max 10 µM
How it was run: as §1

[34] = compound: C[C@@H]1COCCN1C2=NC(=NC(=C2)C3(CC3)[S@](=N)(=O)C)C4=C5C=CNC5=NC=C4 [AZD6738]; details: max 10 µM
How it was run: as §1

[35] = compound: C[C@@H](c1ccc2nccn2c1)n1nnc2ncc(-c3cnn(C)c3)nc21 [Savolitinib]; details: max 1 µM
How it was run: as §1

Cell Line	IC50, cell viability 72 h [1]	IC50, cell viability 72 h [2]	IC50, cell viability 72 h [3]	IC50, cell viability 72 h [4]	IC50, cell viability 72 h [5]	IC50, cell viability 72 h [6]	IC50, cell viability 72 h [7]	IC50, cell viability 72 h [8]	IC50, cell viability 72 h [9]	IC50, cell viability 72 h [10]	IC50, cell viability 72 h [11]	IC50, cell viability 72 h [12]	IC50, cell viability 72 h [13]	IC50, cell viability 72 h [14]	IC50, cell viability 72 h [15]	IC50, cell viability 72 h [16]	IC50, cell viability 72 h [17]	IC50, cell viability 72 h [18]	IC50, cell viability 72 h [19]	IC50, cell viability 72 h [20]	IC50, cell viability 72 h [21]	IC50, cell viability 72 h [22]	IC50, cell viability 72 h [23]	IC50, cell viability 72 h [24]	IC50, cell viability 72 h [25]	IC50, cell viability 72 h [26]	IC50, cell viability 72 h [27]	IC50, cell viability 72 h [28]	IC50, cell viability 72 h [29]	IC50, cell viability 72 h [30]	IC50, cell viability 72 h [31]	IC50, cell viability 72 h [32]	IC50, cell viability 72 h [33]	IC50, cell viability 72 h [34]	IC50, cell viability 72 h [35]
ESS-1 (Other Solid Carcinomas)	> 20000 nM	151 nM	> 10000 nM	500 nM	930 nM	2.56 nM	5500 nM	989 nM	319 nM	65.3 nM	> 3000 nM	2980 nM	125 nM	> 10000 nM	> 10000 nM	> 1000 nM	> 1000 nM	5.06 nM	4500 nM	4.52 nM	> 10000 nM	30.6 nM	> 300 nM	> 1000 nM	3890 nM	> 10000 nM	533 nM	> 10000 nM	> 1 nM	1060 nM	> 10000 nM	> 10000 nM	4820 nM	1770 nM	> 1000 nM
TGBC1TKB (Biliary Tract Carcinoma)	> 20000 nM	> 3000 nM	> 10000 nM	> 10000 nM	> 10000 nM	> 300 nM	> 10000 nM	> 1000 nM	> 1000 nM	> 1000 nM	> 3000 nM	> 5000 nM	> 2000 nM	> 10000 nM	> 10000 nM	> 1000 nM	> 1000 nM	969 nM	> 10000 nM	> 1000 nM	> 10000 nM	> 300 nM	> 300 nM	> 1000 nM	> 10000 nM	> 10000 nM	> 1000 nM	> 10000 nM	> 1 nM	> 10000 nM	> 10000 nM	> 10000 nM	> 10000 nM	> 10000 nM	> 1000 nM
HH (T-Cell Non-Hodgkin's Lymphoma)	> 20000 nM	> 3000 nM	> 10000 nM	> 10000 nM	> 10000 nM	> 300 nM	> 10000 nM	> 1000 nM	> 1000 nM	> 1000 nM	> 3000 nM	> 5000 nM	> 2000 nM	> 10000 nM	> 10000 nM	> 1000 nM	> 1000 nM	> 3000 nM	> 10000 nM	186 nM	> 10000 nM	> 300 nM	> 300 nM	341 nM	> 10000 nM	> 10000 nM	> 1000 nM	> 10000 nM	> 1 nM	> 10000 nM	> 10000 nM	> 10000 nM	> 10000 nM	> 10000 nM	> 1000 nM
SAS (Oral Cavity Carcinoma)	> 20000 nM	511 nM	9890 nM	1130 nM	> 10000 nM	2.92 nM	> 10000 nM	191 nM	115 nM	226 nM	> 3000 nM	479 nM	> 2000 nM	> 10000 nM	6140 nM	> 1000 nM	> 1000 nM	77.7 nM	> 10000 nM	59 nM	> 10000 nM	13 nM	> 300 nM	> 1000 nM	> 10000 nM	> 10000 nM	> 1000 nM	5610 nM	> 1 nM	5190 nM	> 10000 nM	> 10000 nM	> 10000 nM	4420 nM	> 1000 nM
KYAE-1 (Esophageal Adenocarcinoma)	> 20000 nM	> 3000 nM	4580 nM	> 10000 nM	> 10000 nM	> 300 nM	> 10000 nM	> 1000 nM	> 1000 nM	> 1000 nM	> 3000 nM	> 5000 nM	> 2000 nM	> 10000 nM	> 10000 nM	> 1000 nM	> 1000 nM	> 3000 nM	> 10000 nM	829 nM	3340 nM	> 300 nM	> 300 nM	> 1000 nM	> 10000 nM	> 10000 nM	> 1000 nM	> 10000 nM	> 1 nM	1880 nM	> 10000 nM	> 10000 nM	> 10000 nM	> 10000 nM	> 1000 nM
